Each structure is given as a SMILES string.

Among the data in patent publication US9512120B2, “Microbicidally active imidazopyridine derivatives” (Syngenta Participations AG, priority 2013, dated 2016) are inhibition and pest or weed control values, retold here.

In experiment [1] the test system is Thanatephorus cucumeris (Rhizoctonia solani). Briefly: Thanatephorus cucumeris (Rhizoctonia solani) / liquid culture (foot rot, damping-off). Format: cell-based. To be noted: PDB, 24° C., 3-4 days after application, read-out: control of Thanatephorus cucumeris (inhibition of growth, photometric). How it is done: Thanatephorus cucumeris (Rhizoctonia solani)/Liquid Culture (Foot Rot, Damping-Off): Mycelia fragments of a newly grown liquid culture of the fungus are directly mixed into nutrient broth (PDB potato dextrose broth). After placing a DMSO solution of the test compounds into a 96-well microtiter plate at an application rate of 200 ppm, the nutrient broth containing the fungal material was added. The test plates were incubated at 24° C. and the inhibition of growth was determined photometrically 3-4 days after application.

The test system of experiment [2] is Botryotinia fuckeliana (Botrytis cinerea). Description: Botryotinia fuckeliana (Botrytis cinerea) / liquid culture (gray mould). It is filed as cell-based. Conditions: Vogels broth, 24° C., 3-4 days after application, read-out: control of Botryotinia fuckeliana (inhibition of growth, photometric). How it is done: Botryotinia Fuckeliana (Botrytis cinerea)/Liquid Culture (Gray Mould): Conidia of the fungus from cryogenic storage were directly mixed into nutrient broth (Vogels broth). After placing a DMSO solution of test compound into a 96-well microtiter plate at an application rate of 200 ppm, the nutrient broth containing the fungal spores was added. The test plates were incubated at 24° C. and the inhibition of growth was determined photometrically 3-4 days after application.

A further experiment concerns Pyrenophora teres. Briefly: Pyrenophora teres / barley / leaf disc preventative (net blotch). To be noted: foliar, barley leaf segments cv Hasso, inoculated two days after application, assessed 5-7 days after application, read-out: control of Pyrenophora teres (disease control compared to untreated). Format: in vivo. Here is the method:
Pyrenophora Teres/Barley/Leaf Disc Preventative (Net Blotch): Barley leaf segments cv Hasso are placed on agar in a 24-well plate and sprayed with formulated test compound diluted in water at an application rate of 200 ppm. The leaf segments are inoculated with a spore suspension of the fungus two days after application of the test solution. The inoculated leaf segments are incubated at 20° C. and 65% relative humidity under a light regime of 12/12 h (light/dark) in a climate cabinet and the activity of a compound is assessed as disease control compared to untreated when an appropriate level of disease damage appears in untreated check leaf segments (5-7 days after application).

Experiment [3] deals with Mycosphaerella graminicola (Septoria tritici). Description: Mycosphaerella graminicola (Septoria tritici) / liquid culture (Septoria blotch). It is filed as cell-based. To be noted: Zymoseptoria tritici, PDB, 24° C., 4-5 days after application, read-out: control of Mycosphaerella graminicola (inhibition of growth, photometric). How it is done: Mycosphaerella graminicola (Septoria tritici)/Liquid Culture (Septoria Blotch): Conidia of the fungus from cryogenic storage were directly mixed into nutrient broth (PDB potato dextrose broth). After placing a DMSO solution of test compound into a 96-well microtiter plate at an application rate of 200 ppm, the nutrient broth containing the fungal spores was added. The test plates were incubated at 24° C. and the inhibition of growth was determined photometrically 4-5 days after application.

The subject of experiment [4] is Puccinia recondita f. sp. Tritici. Briefly: Puccinia recondita f. sp. tritici / wheat / leaf disc preventative (brown rust). It is filed as in vivo. Conditions: foliar, wheat leaf segments cv Kanzler, inoculated 1 day after application, assessed 7-9 days after application, read-out: control of Puccinia recondita f. sp. Tritici (percent disease control compared to untreated). How it is done:
Puccinia recondita f. Sp. Tritici/Wheat/Leaf Disc Preventative (Brown Rust): Wheat leaf segments cultivated variety (cv) Kanzler were placed on agar in 24-well plates and sprayed with formulated test compound diluted in water at an application rate of 200 ppm. The leaf disks were inoculated with a spore suspension of the fungus 1 day after application. The inoculated leaf segments were incubated at 19° C. and 75% relative humidity under a light regime of 12/12 h (light/dark) in a climate cabinet and the activity of a compound was assessed as percent disease control compared to untreated when an appropriate level of disease damage appears in untreated check leaf segments (7-9 days after application).

Consider `CCn1c(-n2ncnc2N)nc2cncc(-c3cccc(C(F)(F)F)c3)c21` [Compound 31, 2-[1-ethyl-7-[3-(trifluoromethyl)phenyl]imidazo[4,5-c]pyridin-2-yl]-1,2,4-triazol-3-amine], for which the inhibition at 20 ppm in experiment [1] and in experiment [2] was not below 80% throughout. Moreover, the pest or weed control at 200 ppm with Pyrenophora teres was not below 80%.
`CCn1c(-n2ncnc2N)nc2cncc(-c3ccccc3C(F)(F)F)c21` [Compound 32, 2-[1-ethyl-7-[2-(trifluoromethyl)phenyl]imidazo[4,5-c]pyridin-2-yl]-1,2,4-triazol-3-amine]: the inhibition at 20 ppm in experiment [1] is not below 80%. Besides, the pest or weed control at 200 ppm in the experiment with Pyrenophora teres was not below 80%.
Regarding `CCn1c(-n2ncnc2N)nc2cncc(-c3cccc(Cl)c3)c21` [Compound 34, 2-[7-(3-chlorophenyl)-1-ethylimidazo[4,5-c]pyridin-2-yl]-1,2,4-triazol-3-amine], the inhibition at 20 ppm in experiment [3], in experiment [1] and in experiment [2] was not below 80% throughout. The pest or weed control at 200 ppm in the experiment with Pyrenophora teres is not below 80%.
Consider `CCn1c(-n2ncnc2N)nc2cncc(-c3ccc(Cl)c(Cl)c3)c21` [Compound 36, 2-[7-(3,4-dichlorophenyl)-1-ethylimidazo[4,5-c]pyridin-2-yl]-1,2,4-triazol-3-amine], for which the inhibition at 20 ppm in experiment [3] and in experiment [1] was not below 80% each time. In addition, the pest or weed control at 200 ppm (in the experiment with Pyrenophora teres; in experiment [4]) was not below 80% in each case.
On to `CCn1c(-n2ncnc2N)nc2cncc(-c3ccc(OC)c(F)c3)c21` [Compound 43, 2-[1-ethyl-7-(3-fluoro-4-methoxyphenyl)imidazo[4,5-c]pyridin-2-yl]-1,2,4-triazol-3-amine], for which the inhibition at 20 ppm in experiment [3], in experiment [1] and in experiment [2] was not below 80% throughout. The pest or weed control at 200 ppm with Pyrenophora teres is not below 80%.
`CCn1c(-n2ncnc2N)nc2cncc(-c3ccc(C)c([N+](=O)[O-])c3)c21` [Compound 44, 2-[1-ethyl-7-(4-methyl-3-nitrophenyl)imidazo[4,5-c]pyridin-2-yl]-1,2,4-triazol-3-amine]: the inhibition at 20 ppm in experiment [1] was not below 80%.
As for `CCn1c(-n2ncnc2N)nc2cncc(-c3ccc(C)c(C)c3)c21` [Compound 46, 2-[7-(3,4-dimethylphenyl)-1-ethylimidazo[4,5-c]pyridin-2-yl]-1,2,4-triazol-3-amine], the inhibition at 20 ppm in experiment [3], in experiment [1] and in experiment [2] was not below 80% each time.
For `CCn1c(-n2ncnc2N)nc2cncc(-c3cc(C)c(OC)c(C)c3)c21` [Compound 47, 2-[1-ethyl-7-(4-methoxy-3,5-dimethylphenyl)imidazo[4,5-c]pyridin-2-yl]-1,2,4-triazol-3-amine], in experiment [1], the inhibition at 20 ppm was not below 80%. The pest or weed control at 200 ppm (in the experiment on Pyrenophora teres; in experiment [4]) was not below 80% each time.
As to `CCn1c(-n2ncnc2N)nc2cncc(-c3ccc(Cl)c(C(F)(F)F)c3)c21` [Compound 49], the inhibition at 20 ppm in experiment [3], in experiment [1] and in experiment [2] was not below 80% each time. Further, in the experiment with Pyrenophora teres, the pest or weed control at 200 ppm is not below 80%.
In the case of `CCn1c(-n2ncnc2N)nc2cncc(-c3cc4ccccc4o3)c21` [Compound 51, 2-[7-(1-benzofuran-2-yl)-1-ethylimidazo[4,5-c]pyridin-2-yl]-1,2,4-triazol-3-amine], the inhibition at 20 ppm in experiment [1] was not below 80%. In the experiment with Pyrenophora teres, the pest or weed control at 200 ppm was not below 80%.
On to `CCn1c(-n2ncnc2N)nc2cncc(-c3cc(C)sc3C)c21` [Compound 52, 2-[7-(2,5-dimethylthiophen-3-yl)-1-ethylimidazo[4,5-c]pyridin-2-yl]-1,2,4-triazol-3-amine], for which the inhibition at 20 ppm in experiment [3], in experiment [1] and in experiment [2] was not below 80% in each case.
On to `CCn1c(-n2ncnc2N)nc2cncc(-c3cccnc3OC)c21` [Compound 58, 2-[1-ethyl-7-(2-methoxypyridin-3-yl)imidazo[4,5-c]pyridin-2-yl]-1,2,4-triazol-3-amine], for which the inhibition at 20 ppm in experiment [1] was not below 80%. Moreover, in the experiment on Pyrenophora teres, the pest or weed control at 200 ppm is not below 80%.
Take `CCn1c(-n2ncnc2N)nc2cncc(-c3ccc(C(F)(F)F)nc3)c21` [Compound 63, 2-[1-ethyl-7-[6-(trifluoromethyl)pyridin-3-yl]imidazo[4,5-c]pyridin-2-yl]-1,2,4-triazol-3-amine]: the inhibition at 20 ppm in experiment [1] was not below 80%. In addition, in the experiment on Pyrenophora teres, the pest or weed control at 200 ppm was not below 80%.
Take `CCn1c(-n2ncnc2N)nc2cncc(-c3cnc(Cl)c(C)c3)c21` [Compound 65, 2-[7-(6-chloro-5-methylpyridin-3-yl)-1-ethylimidazo[4,5-c]pyridin-2-yl]-1,2,4-triazol-3-amine]: the inhibition at 20 ppm in experiment [1] was not below 80%. The pest or weed control at 200 ppm with Pyrenophora teres was not below 80%.
Regarding `CCn1c(-n2ncnc2N)nc2cncc(C=CC3CCCCC3)c21` [Compound 70, 2-[7-(2-cyclohexylethenyl)-1-ethylimidazo[4,5-c]pyridin-2-yl]-1,2,4-triazol-3-amine], the inhibition at 20 ppm in experiment [3] was not below 80%. In addition, the pest or weed control at 200 ppm in the experiment with Pyrenophora teres was not below 80%.
For `CCn1c(-n2ncnc2N)nc2cncc(C=Cc3ccc(C)cc3)c21` [Compound 71, 2-[1-ethyl-7-[2-(4-methylphenyl)ethenyl]imidazo[4,5-c]pyridin-2-yl]-1,2,4-triazol-3-amine], in experiment [1], the inhibition at 20 ppm is not below 80%.
With `CCn1c(-n2ncnc2N2C(=O)CCC2=O)nc2cncc(C(C)=O)c21` [Compound 113, 1-[2-(7-acetyl-1-ethylimidazo[4,5-c]pyridin-2-yl)-1,2,4-triazol-3-yl]pyrrolidine-2,5-dione], the pest or weed control at 200 ppm in the experiment on Pyrenophora teres was not below 80%.
As to `CCn1c(-n2ncnc2N2C(=O)CCC2=O)nc2cncc(-c3ccc(Cl)cc3Cl)c21` [Compound 114], the pest or weed control at 200 ppm with Pyrenophora teres is not below 80%.
Regarding `Nc1ncnn1-c1nc2cncc(-c3ccc(Cl)cc3Cl)c2n1C1CC1` [Compound 119, 2-[1-cyclopropyl-7-(2,4-dichlorophenyl)imidazo[4,5-c]pyridin-2-yl]-1,2,4-triazol-3-amine], the inhibition at 20 ppm in experiment [3] and in experiment [1] was not below 80% each time. In the experiment on Pyrenophora teres, the pest or weed control at 200 ppm was not below 80%.
Regarding `Nc1ncnn1-c1nc2cncc(-c3ccccc3Cl)c2n1C1CC1` [Compound 125, 2-[7-(2-chlorophenyl)-1-cyclopropylimidazo[4,5-c]pyridin-2-yl]-1,2,4-triazol-3-amine], in experiment [1], the inhibition at 20 ppm was not below 80%.
Take `Nc1ncnn1-c1nc2cncc(-c3ccccc3Cl)c2n1C1CCCCC1` [Compound 126, 2-[7-(2-chlorophenyl)-1-cyclohexylimidazo[4,5-c]pyridin-2-yl]-1,2,4-triazol-3-amine]: the inhibition at 20 ppm in experiment [2] was not below 80%.
Regarding `CCOC(=O)C(C)O/N=C(\C)c1cncc2nc(-n3ncnc3N)n(CC)c12` (stereo not drawn) [Compound 159], in experiment [1], the inhibition at 20 ppm is not below 80%.
Regarding `CCn1c(-n2ncnc2N)nc2cncc(/C(C)=N/OCC(C)C)c21` [Compound 162], the inhibition at 20 ppm in experiment [3] and in experiment [1] was not below 80% in each case. Moreover, in experiment [4], the pest or weed control at 200 ppm is not below 80%.
Regarding `CCn1c(-n2ncnc2N)nc2cncc(C(C)=NOCc3cc(Cl)c(Cl)cc3Cl)c21` [Compound 164], the inhibition at 20 ppm in experiment [3] and in experiment [1] was not below 80% each time. In addition, the pest or weed control at 200 ppm in the experiment on Pyrenophora teres was not below 80%.
On to `Cc1cncc2nc(-n3ncnc3N)n(C3CC3)c12` [Compound 175, 2-(1-cyclopropyl-7-methyl-imidazo[4,5-c]pyridin-2-yl)-1,2,4-triazol-3-amine], for which the pest or weed control at 200 ppm in the experiment on Pyrenophora teres is not below 80%.
Take `C=C(C)CO/N=C(\C)c1cncc2nc(-n3ncnc3N)n(CC)c12` [Compound 179]: the inhibition at 20 ppm in experiment [3], in experiment [1] and in experiment [2] was not below 80% throughout.
